One data set has as its system MCF7. As to the kind of experiment: Antiproliferative activity against human MCF7 cells after 3 days by CellTiter-Glo luminescent cell viability assay. The format is functional, cell-based.
Data set [1] is described as follows: Clearance in Sprague-Dawley rat at 1 mg/kg, iv or 1 mg/kg, po. The format is ADME, organism-based. Particulars: in vivo.
Data set [2] is described as follows: Octanol-buffer distribution coefficient, log D of the compound at pH 7.4. The format is physicochemical.
Another data set concerns the target T1, Estrogen receptor (Homo sapiens, UniProt P03372).
T1 sequence (P03372 whole entry): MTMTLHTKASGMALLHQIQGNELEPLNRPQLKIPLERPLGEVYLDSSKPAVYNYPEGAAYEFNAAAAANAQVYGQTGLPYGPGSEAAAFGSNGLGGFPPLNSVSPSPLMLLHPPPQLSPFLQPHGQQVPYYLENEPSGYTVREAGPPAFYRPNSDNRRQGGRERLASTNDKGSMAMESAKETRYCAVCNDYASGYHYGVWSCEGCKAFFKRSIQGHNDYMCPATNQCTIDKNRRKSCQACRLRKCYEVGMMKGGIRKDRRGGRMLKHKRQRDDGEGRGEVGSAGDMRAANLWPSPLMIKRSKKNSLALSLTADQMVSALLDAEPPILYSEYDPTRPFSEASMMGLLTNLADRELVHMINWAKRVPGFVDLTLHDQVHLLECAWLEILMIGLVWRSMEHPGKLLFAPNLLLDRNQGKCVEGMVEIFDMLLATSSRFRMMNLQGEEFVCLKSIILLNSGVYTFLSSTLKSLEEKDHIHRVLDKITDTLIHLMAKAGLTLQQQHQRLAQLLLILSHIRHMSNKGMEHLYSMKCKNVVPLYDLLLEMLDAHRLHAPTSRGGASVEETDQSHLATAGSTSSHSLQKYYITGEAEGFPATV

Data set [3] is described as follows: Oral bioavailability in Sprague-Dawley rat at 1 mg/kg. The format is ADME, organism-based. Particulars: in vivo.
Data set [4] has as its system Rattus norvegicus. As to the kind of experiment: In vivo antagonist activity at estrogen receptor in Sprague-Dawley rat assessed as reduction in ethynylestradiol-stimulated increase in uterine wet weight at 0.1 mg/kg, po administered once daily via gavage for 3 days measured 24 hrs post last dose relative to control. The format is functional. Also on record: scale not given: the % may be the effect or the level left.

For data set [5], the system named is Rattus norvegicus. As to the kind of experiment: In vivo antagonist activity at estrogen receptor in Sprague-Dawley rat assessed as reduction in ethynylestradiol-stimulated increase in uterine wet weight at 10 mg/kg, po administered once daily via gavage for 3 days measured 24 hrs post last dose relative to control. It is filed as functional. Also on record: scale not given: the % may be the effect or the level left.

The test system of data set [6] is Rattus norvegicus. As to the kind of experiment: In vivo antagonist activity at estrogen receptor in Sprague-Dawley rat assessed as reduction in ethynylestradiol-stimulated increase in uterine wet weight administered once daily via oral gavage for 3 days measured 24 hrs post last dose. The format is functional, organism-based.
Data set [7] relates to Rattus norvegicus. As to the kind of experiment: In vivo antagonist activity at estrogen receptor in Sprague-Dawley rat assessed as reduction in ethynylestradiol-stimulated increase in uterine wet weight at 60 mg/kg, po administered once daily via gavage for 3 days measured 24 hrs post last dose relative to control. It is filed as functional. Also on record: scale not given: the % may be the effect or the level left.

Each structure is given as a SMILES string.

Description for Estrogen receptor: Induction of ERalpha degradation in human MCF7 cells after 4 hrs by Alexafluor-488 conjugate anti-mouse IgG antibody/Hoechst 33342 staining based immunofluorescence imaging analysis

The molecule `Oc1ccc2c(c1)OC(c1ccc(OCCN3CC(CF)C3)cc1)C1=C2CCOc2cc(O)ccc21` (racemic) returned an IC50 with MCF7 (Homo sapiens, MCF7, 72 h) of 700 pM.
On to `Oc1ccc2c(c1)OCCC1=C2C(c2ccc(OCCN3CC(CF)C3)cc2)Oc2ccc(O)cc21` (stereo in doubt; 17b), for which it took 600 pM to reach half-maximal inhibition in the data set on MCF7 (Homo sapiens, MCF7, 72 h) (IC50). The molecule further displayed a clearance in data set [1] of 237 mL/min/kg. Further, the logD in data set [2] was 2.7.
In the case of `Oc1ccc2c(c1)O[C@H](c1ccc(OCCN3CC(CF)C3)cc1)C1=C2CCOc2cc(O)ccc21`, it took 900 pM to reach half-maximal inhibition with MCF7 (Homo sapiens, MCF7, 72 h) (IC50). This molecule also returned a logD in data set [2] of 3.2.
Turning to `C[C@@H](COc1ccc(C2Oc3cc(O)ccc3C3=C2c2ccc(O)cc2OCC3)cc1)N1CC[C@@H](CF)C1` (some centres not stated), half-maximal inhibition in the data set with MCF7 (Homo sapiens, MCF7, 72 h) (IC50) was put at 200 pM.
Consider `Oc1ccc2c(c1)C1=C(c3cc(O)ccc3OCC1)C(c1ccc(OCCN3CC(CF)C3)cc1)O2` (stereo in doubt; 19a), for which the half-maximal inhibitory concentration (IC50) in the data set with MCF7 (mcf7) turned out to be 800 pM; against Estrogen receptor, 240 pM.
Consider `Oc1ccc2c(c1)C1=C(c3cc(O)ccc3OCC1)C(c1ccc(OCCN3CC(CF)C3)cc1)O2` (stereo in doubt; 19b), for which the values for the IC50 in the data set with MCF7 (mcf7) and against Estrogen receptor were 10000 pM and 3200 pM, respectively.
For `Oc1ccc2c(c1)OC(c1ccc(OCCN3CC(CF)C3)cc1)C1=C2CCOc2ccc(O)cc21` (stereo in doubt; 18a), in that order: 5000 pM and 610 pM.
For `Oc1ccc2c(c1)OC(c1ccc(OCCN3CC(CF)C3)cc1)C1=C2CCOc2ccc(O)cc21` (stereo in doubt; 18b), in that order: 20000 pM and 9600 pM.
As for `Oc1ccc2c(c1)OCCC1=C2C(c2ccc(OCCN3CC(CF)C3)cc2)Oc2ccc(O)cc21` (stereo in doubt; 17a), in the data set with MCF7 (mcf7), 300 pM corresponded to half-maximal inhibition (IC50).
As for `Oc1ccc2c(c1)OC(c1ccc(OCCN3CC[C@@H](CF)C3)cc1)C1=C2CCOc2cc(O)ccc21` (some centres not stated), 300 pM corresponded to half-maximal inhibition in the data set on MCF7 (Homo sapiens, MCF7, 72 h) (IC50).
The molecule `Oc1ccc2c(c1)O[C@@H](c1ccc(OCCN3CC(CF)C3)cc1)C1=C2CCOc2cc(O)ccc21` registered an IC50 in the data set with MCF7 (Homo sapiens, MCF7, 72 h) of 400 pM. Besides, in data set [1], the clearance was 57 mL/min/kg. In [3], this molecule had a bioavailability of 3.2%. This molecule also returned a logD in data set [2] of 3. The Activity in the data set on Rattus norvegicus [4] was 17%; in the data set on Rattus norvegicus [5], 87%; with Rattus norvegicus [6], “Dose-dependent effect”.
With `CC1=C(c2cccc(O)c2)[C@H](c2ccc(OCCN3CC(CF)C3)cc2)Oc2ccc(O)cc21`, in the data set on MCF7 (Homo sapiens, MCF7, 72 h), the IC50 is 200 pM. The same molecule showed a clearance in [1] of 85 mL/min/kg. In data set [3], this molecule showed a bioavailability of 16%. Besides, the logD in data set [2] came to 2.9. In addition, in the data set on Rattus norvegicus [5], the Activity was determined as 105.7%.
`Oc1ccc2c(c1)OC(c1ccc(OCCN3CCCCC3)cc1)C1=C2CCOc2cc(O)ccc21` (racemic): the IC50 was 1200 pM with MCF7 (Homo sapiens, MCF7, 72 h) and 280 pM against Estrogen receptor.
As for `CC/C(=C(\c1ccccc1)c1ccc(OCCN(C)C)cc1)c1ccccc1` [TAMOXIFEN], the Activity in the data set with Rattus norvegicus [7] is 36%.

The IC50 is the concentration needed to halve the response being measured. For orientation: logD means the decadic logarithm of the distribution of all forms, ionised or not, between an organic phase and buffer at a given pH. What is called bioavailability is dose-corrected exposure relative to a reference, in per cent.
